# Experimental data: patent publication US11059815B2, “Synthesis of small molecule histone deacetylase 6 degraders, compounds formed thereby, and pharmaceutical compositions containing them” (Wisconsin Alumni Research Foundation, priority 2018, dated 2021)
# Where two headings read alike, the source gives them in different places.
# System: MM1S cells
# Experiment: Cell viability assay in MM1S cells
# Assay type: cell-based, human
# Conditions: for Maximal Inhibition (%) of growth / IC50: 0.3 nM to 3 μM, nonlinear fit, ± SD; for IC50 / inhibition at 1 µM: Homo sapiens, MM1.S; for IC50: read-out: IC50 of antiproliferation
# Description: FIG. 14A is a histogram depicting cell viability of MM1S cells treated with compounds at 1 μM for 72 h. FIG. 14B is a graph showing cell viability of MM1S cells treated with compounds at concentrations from 0.3 nM to 3 μM for 72 h. All data were normalized to vehicle (DMSO)-treated group and dot plot represented as mean of relative viability (n=3) with ±SD as error bar. For the curve in FIG. 14B, nonlinear fitting of inhibitor concentration vs. response (three parameters) was generated by GraphPad Prism with R^2 from 0.92 to 0.97. Statistical significance was analyzed by one-way ANOVA for FIG. 14A and two-way ANOVA for FIG. 14B. Not significant (ns) P>0.05, *P≤0.05, **P≤0.01, ***P≤0.001, ****P≤0.0001.
# FIG. 18 is a histogram showing that HDAC6 degrader and IMiD inhibited MM1S growth synergistically. MM1S cells were treated for 72 h and cell proliferation was examined by AlarmaBlue-brand cell viability assay (ThermoFisher Scientific, Waltham, Mass., USA). Statistical significance was analyzed by one-way ANOVA. Not significant (ns) P>0.05, *P≤0.05, **P≤0.01, ***P≤0.001, ****P≤0.000
# Single treatment or co-treatment was performed as combined therapy (1 μM) for 72 hours in MM1S cells. […] However, the single treatment of 12d improved about 19% (P=0.0017) and 11% (P=0.0213) growth inhibition comparing with the combination sets of 13+15 (1:1) and pomalidomide+Next-A (1:1), respectively. To further confirm the observed enhancement, the anti-proliferation in response to 12d was studied from 0.3 nM to 3 μM. This single treatment was compared with dual treatment of 13 and 15 to rule out the potential complication derived from cell permeability issue. Degrader 12d lowered the bottom line (minimal proliferation) of curve over 20% although its IC50 was […] consequentially.
# MM1S cells were harvested and plated with 1×10^5 cells in […] media per well in 96-well plate. After overnight seeding, 25 μL media containing 5× dosing concentration of the compounds or vehicle was added to each well. After 72-hour treatment at 37° C. in a humidified 5% CO2 atmosphere, 12.5 μL 10× resazurin solution (1 mg/mL) was added to each well. Then cells were incubated at 37° C. overnight. The optical density was read at 570 nm and 600 nm by plate reader.
# The relative viability (RV) was measured by followed formula: […]
# The single treatment of HDAC6 inhibitor, HDAC6 degrader 3j, IMiD (pomalidomide), and the combination of the two was compared in MM1S cells to evaluate cell vialility. […] Pomalidomide suppressed ˜50% proliferation at either 1 μM or 100 nM concentration. […] The results confirmed that HDAC6 degradation and IKZF degradation work synergistically to inhibit the growth of multiple myeloma cells.
smiles,measurement,setting,value
"Nc1cccc2c1C(=O)N(C1CCC(=O)NC1=O)C2=O (stereo not shown) [Pomalidomide, reference compound]",suppression of proliferation,"either 1 μM or 100 nM, 72 h",~50%
"CCCCN(Cc1ccc(C(=O)NO)cc1)C(=O)Nc1ccc(OCCCCCn2cc(CNc3cccc4c3C(=O)N(C3CCC(=O)NC3=O)C4=O)nn2)cc1 (stereo not shown) [Compound 12d, 4-((1-butyl-3-(4-((5-(4-(((2-(2,6-dioxopiperidin-3-yl)-1,3-dioxoisoindolin-4-yl)amino)methyl)-1H-1,2,3-triazol-1-yl)pentyl)oxy)phenyl)ureido)methyl)-N-hydroxybenzamide]",Maximal Inhibition (%) of growth,72 h,63.15 ± 1.82%
same,degrader concentration at which HDAC6 degradation and IKZF degradation had synergistic effects,72 h,> 300 nM
same,lowering of bottom line (minimal proliferation) of curve,"72 h, versus 13 and 15 dual treatment",over 20%
same,IC50,72 h,0.0749 ± 0.0114 µM
same,inhibition at 1 µM,"1 μM, 72 h, P=0.0017, read-out: improvement of growth inhibition compared with 13+15 (1:1)",~19%
same,inhibition at 1 µM,"1 μM, 72 h, P=0.0213, read-out: improvement of growth inhibition compared with pomalidomide+Next-A (1:1)",~11%
"CCCCN(Cc1ccc(C(=O)NO)cc1)C(=O)Nc1ccccc1 [Next-A, 4-[[butyl[(phenylamino)carbonyl]amino]methyl]-N-hydroxy-benzamide, reference compound]","anti-proliferation effect, single treatment","1 μM, 72 h",did not show any anti-proliferation effect
same,effect on cell growth,"1 μM, 72 h",minor effects
"CCCCN(Cc1ccc(C(=O)OC)cc1)C(=O)Nc1ccc(OCCCCCn2cc(CNc3cccc4c3C(=O)N(C3CCC(=O)NC3=O)C4=O)nn2)cc1 (stereo not shown) [Compound 13, Methyl 4-((1-butyl-3-(4-((5-(4-(((2-(2,6-dioxopiperidin-3-yl)-1,3-dioxoisoindolin-4-yl)amino)methyl)-1H-1,2,3-triazol-1-yl)pentyl)oxy)phenyl)ureido)methyl)benzoate]",Maximal Inhibition (%) of growth,72 h,43.96 ± 1.16%
same,IC50,72 h,0.0177 ± 0.00284 µM
"CCCCN(Cc1ccc(C(=O)NO)cc1)C(=O)Nc1ccc(OCCCCCn2cc(CNc3cccc4c3C(=O)N(C3CCC(=O)N(C)C3=O)C4=O)nn2)cc1 (stereo not shown) [Compound 15, 4-((1-butyl-3-(4-((5-(4-(((2-(1-methyl-2,6-dioxopiperidin-3-yl)-1,3-dioxoisoindolin-4-yl)amino)methyl)-1H-1,2,3-triazol-1-yl)pentyl)oxy)phenyl)ureido)methyl)-N-hydroxybenzamide]",effect on cell growth,"1 μM, 72 h",totally inactive
CCCCN(Cc1ccc(C(=O)NO)cc1)C(=O)Nc1ccc(OCCCCCn2cc(CNc3cccc4c3C(=O)N(C3CCC(=O)NC3=O)C4=O)nn2)cc1 (stereo not shown) [Compound 2],anti-proliferation effect of degrader alone,,significant anti-proliferation effect
